Columns and labels:
LNCap = assay: In vitro cell growth assay (MTS), LNCap; type: cell-based; conditions: LNCaP, 72 h, human prostate line, three days after drug treatment
MDA468 = assay: In vitro cell growth assay (MTS), MDA468; type: cell-based; conditions: 72 h, human breast line MDA468, three days after drug treatment, read-out: MDA IC50
PI3K-alpha = PI3K-alpha (Homo sapiens, UniProt P42336); assay: PI3K-alpha fluorescence polarization assay; type: biochemical; conditions: 20 μM PIP2, 25 μM ATP; read-out: PI3Kα IC50
PI3K-alpha, sequence (P42336 whole entry, species assumed): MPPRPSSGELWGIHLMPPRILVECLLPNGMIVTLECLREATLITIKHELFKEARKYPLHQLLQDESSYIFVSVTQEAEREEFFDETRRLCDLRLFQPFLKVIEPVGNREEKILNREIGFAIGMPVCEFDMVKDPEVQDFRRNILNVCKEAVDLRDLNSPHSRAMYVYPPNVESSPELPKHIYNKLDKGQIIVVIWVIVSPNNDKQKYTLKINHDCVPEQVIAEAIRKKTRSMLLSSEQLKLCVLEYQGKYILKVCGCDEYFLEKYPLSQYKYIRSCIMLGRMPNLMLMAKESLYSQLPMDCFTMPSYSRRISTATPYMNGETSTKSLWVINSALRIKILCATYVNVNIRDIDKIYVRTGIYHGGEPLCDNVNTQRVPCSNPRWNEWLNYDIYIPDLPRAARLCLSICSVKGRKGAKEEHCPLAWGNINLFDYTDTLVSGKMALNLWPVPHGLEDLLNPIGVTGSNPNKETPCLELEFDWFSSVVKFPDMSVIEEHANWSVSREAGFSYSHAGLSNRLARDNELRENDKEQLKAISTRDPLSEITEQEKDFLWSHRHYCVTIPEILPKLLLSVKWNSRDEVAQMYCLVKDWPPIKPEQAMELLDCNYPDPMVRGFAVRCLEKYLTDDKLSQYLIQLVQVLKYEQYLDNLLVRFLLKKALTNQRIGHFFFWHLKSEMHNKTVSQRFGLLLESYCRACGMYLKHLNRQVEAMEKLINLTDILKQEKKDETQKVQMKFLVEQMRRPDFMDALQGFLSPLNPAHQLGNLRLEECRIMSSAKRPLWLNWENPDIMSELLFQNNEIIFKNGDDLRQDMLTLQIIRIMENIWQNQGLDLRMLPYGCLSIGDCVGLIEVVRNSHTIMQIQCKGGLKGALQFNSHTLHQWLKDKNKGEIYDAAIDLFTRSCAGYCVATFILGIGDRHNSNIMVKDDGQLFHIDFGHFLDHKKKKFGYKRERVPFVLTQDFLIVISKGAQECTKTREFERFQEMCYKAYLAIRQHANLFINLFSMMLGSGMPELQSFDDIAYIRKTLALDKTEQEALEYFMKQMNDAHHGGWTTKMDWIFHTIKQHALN
PI3K-alpha, sequence (P27986 whole entry partner, species assumed): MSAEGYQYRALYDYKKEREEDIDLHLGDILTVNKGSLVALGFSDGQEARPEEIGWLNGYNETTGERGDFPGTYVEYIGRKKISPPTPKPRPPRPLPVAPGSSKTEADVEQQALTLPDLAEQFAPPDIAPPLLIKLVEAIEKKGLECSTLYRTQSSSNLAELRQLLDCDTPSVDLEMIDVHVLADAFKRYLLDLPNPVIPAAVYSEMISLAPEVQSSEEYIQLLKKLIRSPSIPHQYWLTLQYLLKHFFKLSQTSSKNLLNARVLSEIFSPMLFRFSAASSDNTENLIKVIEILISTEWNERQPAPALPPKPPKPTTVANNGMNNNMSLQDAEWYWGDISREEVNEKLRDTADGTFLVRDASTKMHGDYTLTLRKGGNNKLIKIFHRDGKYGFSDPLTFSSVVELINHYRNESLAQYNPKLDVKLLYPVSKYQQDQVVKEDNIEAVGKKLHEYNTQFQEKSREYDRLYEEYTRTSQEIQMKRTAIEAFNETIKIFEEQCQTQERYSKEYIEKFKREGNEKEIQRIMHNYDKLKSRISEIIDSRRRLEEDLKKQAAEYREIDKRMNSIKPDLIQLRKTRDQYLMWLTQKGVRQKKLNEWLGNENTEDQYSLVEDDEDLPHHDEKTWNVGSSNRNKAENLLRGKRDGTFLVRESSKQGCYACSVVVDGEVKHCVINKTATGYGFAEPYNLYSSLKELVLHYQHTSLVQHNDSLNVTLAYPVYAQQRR
Method in brief: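 PIP2 (diC8) and ATP substrate with PI3K in 20 mM HEPES pH 7.5, 2 mM MgCl2, 0.05% CHAPS, 0.01% βME; 1% DMSO final; 30–60 min reaction. Stopped with EDTA plus GST-GRP (70 nM) and TAMRA probe (10 nM); FP (mP) read after 30–90 min, with no-enzyme controls.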

mTOR = mTOR (Homo sapiens, UniProt P42345); assay: mTOR enzyme assay (DELFIA, purified FLAG-TOR, His6-S6K substrate); type: biochemical; set-up: FLAG; conditions: 100 μM ATP, 2 hours
mTOR, sequence (P42345 1360-2549 limits assumed): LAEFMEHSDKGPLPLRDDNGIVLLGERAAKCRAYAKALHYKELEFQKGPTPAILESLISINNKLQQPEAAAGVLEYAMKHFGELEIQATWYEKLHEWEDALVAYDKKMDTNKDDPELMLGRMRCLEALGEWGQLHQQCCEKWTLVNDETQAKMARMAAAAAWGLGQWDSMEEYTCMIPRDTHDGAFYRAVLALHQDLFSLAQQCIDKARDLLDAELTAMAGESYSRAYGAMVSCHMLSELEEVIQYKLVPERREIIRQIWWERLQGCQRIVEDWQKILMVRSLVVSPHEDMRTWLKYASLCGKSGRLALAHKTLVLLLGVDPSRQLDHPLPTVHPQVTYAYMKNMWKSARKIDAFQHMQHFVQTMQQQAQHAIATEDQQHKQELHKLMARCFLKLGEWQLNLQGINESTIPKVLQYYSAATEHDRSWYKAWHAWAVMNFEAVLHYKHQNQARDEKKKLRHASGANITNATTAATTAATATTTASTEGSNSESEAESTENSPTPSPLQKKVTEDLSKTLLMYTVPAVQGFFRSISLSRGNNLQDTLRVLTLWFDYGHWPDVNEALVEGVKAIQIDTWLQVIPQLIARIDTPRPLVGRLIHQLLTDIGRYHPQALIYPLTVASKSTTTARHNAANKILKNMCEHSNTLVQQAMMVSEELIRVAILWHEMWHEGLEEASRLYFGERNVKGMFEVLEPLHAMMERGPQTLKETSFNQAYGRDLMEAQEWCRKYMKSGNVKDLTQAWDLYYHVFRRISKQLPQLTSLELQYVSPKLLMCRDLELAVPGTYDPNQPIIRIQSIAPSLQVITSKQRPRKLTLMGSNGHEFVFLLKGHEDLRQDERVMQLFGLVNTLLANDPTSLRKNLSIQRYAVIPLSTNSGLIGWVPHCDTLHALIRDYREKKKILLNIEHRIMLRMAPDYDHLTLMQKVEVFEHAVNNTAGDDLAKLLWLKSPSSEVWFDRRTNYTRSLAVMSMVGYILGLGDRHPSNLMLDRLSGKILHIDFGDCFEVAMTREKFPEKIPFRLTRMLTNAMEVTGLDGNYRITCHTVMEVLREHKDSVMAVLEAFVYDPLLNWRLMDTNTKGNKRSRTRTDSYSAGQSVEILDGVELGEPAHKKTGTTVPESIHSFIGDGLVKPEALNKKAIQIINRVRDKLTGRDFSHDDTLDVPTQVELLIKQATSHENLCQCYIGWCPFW

PI3K-gamma = PI3K-gamma (Homo sapiens, UniProt P48736); assay: PI3K-gamma fluorescence polarization assay; type: biochemical; conditions: 20 μM PIP2, 25 μM ATP; read-out: PI3Kγ IC50
PI3K-gamma, sequence (P48736 whole entry, species assumed): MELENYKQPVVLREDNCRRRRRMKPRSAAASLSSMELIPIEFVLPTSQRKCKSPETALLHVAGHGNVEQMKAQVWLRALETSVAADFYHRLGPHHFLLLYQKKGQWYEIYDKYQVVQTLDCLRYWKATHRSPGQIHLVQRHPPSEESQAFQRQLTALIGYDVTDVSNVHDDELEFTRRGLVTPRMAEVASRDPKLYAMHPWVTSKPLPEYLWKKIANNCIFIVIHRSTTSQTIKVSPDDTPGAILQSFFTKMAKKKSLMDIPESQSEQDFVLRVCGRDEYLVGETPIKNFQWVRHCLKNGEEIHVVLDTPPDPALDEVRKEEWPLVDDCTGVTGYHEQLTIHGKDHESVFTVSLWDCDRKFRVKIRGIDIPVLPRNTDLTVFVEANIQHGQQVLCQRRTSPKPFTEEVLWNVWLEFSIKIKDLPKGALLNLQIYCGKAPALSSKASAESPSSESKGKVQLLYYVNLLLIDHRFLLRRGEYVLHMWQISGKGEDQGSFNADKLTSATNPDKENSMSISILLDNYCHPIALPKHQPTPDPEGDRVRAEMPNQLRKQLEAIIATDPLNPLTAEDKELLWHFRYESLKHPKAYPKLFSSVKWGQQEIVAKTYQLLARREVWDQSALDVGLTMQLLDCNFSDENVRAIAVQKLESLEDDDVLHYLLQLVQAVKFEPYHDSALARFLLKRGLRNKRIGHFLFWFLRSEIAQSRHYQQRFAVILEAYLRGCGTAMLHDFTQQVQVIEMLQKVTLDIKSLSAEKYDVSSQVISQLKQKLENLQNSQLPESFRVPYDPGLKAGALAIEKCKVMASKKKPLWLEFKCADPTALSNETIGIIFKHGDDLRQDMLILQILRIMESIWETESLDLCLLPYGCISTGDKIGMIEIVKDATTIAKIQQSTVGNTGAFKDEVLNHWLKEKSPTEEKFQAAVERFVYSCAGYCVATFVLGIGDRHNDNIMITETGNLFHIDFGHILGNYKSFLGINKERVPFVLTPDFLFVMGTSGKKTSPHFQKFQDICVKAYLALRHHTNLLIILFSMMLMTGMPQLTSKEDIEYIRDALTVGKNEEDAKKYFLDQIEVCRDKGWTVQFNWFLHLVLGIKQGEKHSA
Protocol: The reaction buffer was 20 mM HEPES, pH 7.5, 2 mM MgCl2, 0.05% CHAPS; and 0.01% βME (added fresh). The stop/detection buffer was 100 mM HEPES, pH 7.5, 4 mM EDTA, 0.05% CHAPS; ATP 20 mM in water; PIP2 (diC8, Echelon, Salt Lake City Utah cat #P-4508) 1 mM in water (MW=856.5). The GST-GRP was 1.75 mg/mL or 1.4 mg/mL in 10% glycerol. The red detector (TAMRA) was 2.5 μM. Nunc 384-well black polypropylene fluorescent plates were used for PI3K assays.
The assay is run by placing 5 μL of diluted enzyme per well, then 5 μL of diluted compound (or 9.5 μL enzyme then 0.5 μL compound in DMSO) is added and mixed. Then, 10 μL substrate is added to start the reaction. The samples are incubated 30-60 minutes, then the reaction is stopped by adding 20 μL stop/detector mix. PI3K is diluted with reaction buffer (e.g., 5 μL or 7.5 μL PI3K into 620 μL reaction buffer), and 5 μL of diluted enzyme is used per well. A 5 μL portion of reaction buffer or of drug diluted in buffer (e.g., 4 μL/100 so final DMSO is 1% in reaction) is added to each. Pipetting up and down mixes the samples. Alternatively, the enzyme can be diluted to 1215 μL. In this case 9.8 μL is added per well and 0.2 μL compound is added in DMSO.
To prepare 1 mL of substrate solution, 955 μL reaction buffer, 40 μL PIP2, and 2.5 μL ATP are mixed. 10 μL of substrate is added to each well to start the reaction. […] The stop/detector mix is prepared by mixing 4 μL red detector and 1.6 μL or 2.0 μL GST-GRP with 1 mL stop buffer, which results in 10 nM probe and 70 nM GST-GRP. 20 μL of the stop/detector mix is added to each well to stop the reaction. The plates are read after 30-90 minutes keeping the red probe solutions dark. For the zero time point, stop/detector mix is added to the enzyme just before adding substrate. For an extra control, stop/detector mix is added to buffer (no enzyme) and substrate or to just buffer (no substrate). […] The recommended reaction has 0.06 μL per 20 μL (0.015 μg/20 μL) or 0.01125 μg/15 μL or 0.75 μg/mL.
Plates are read on machines with filters for TAMRA. The units are mP with no enzyme controls reading app 190-220 mP units. Fully active enzyme reduces fluorescence polarization down to 70-100 mP after 30 minutes. An active compound raises the mP values halfway to control or to 120-150 mP units.

| SMILES | IC50 (LNCap) [nM] | IC50 (MDA468) [nM] | IC50 (PI3K-alpha) [nM] | IC50 (mTOR) [nM] | IC50 (PI3K-gamma) [nM] |
| --- | --- | --- | --- | --- | --- |
| CC(C)Nc1cc(N2C3CCC2COC3)nc(-c2ccc(NC(=O)Nc3ccc(OCCN4CCCC4)cc3)cc2)n1 [1-(4-{4-[(1-methylethyl)amino]-6-(3-oxa-8-azabicyclo[3.2.1]oct-8-yl)pyrimidin-2-yl}phenyl)-3-[4-(2-pyrrolidin-1-ylethoxy)phenyl]urea] | 50 | 55 | 1320 | 3.05 | 4730 |
| CC(C)Nc1cc(N2C3CCC2COC3)nc(-c2ccc(NC(=O)Nc3ccc(CN4CCCC4)cc3)cc2)n1 [1-(4-{4-[(1-methylethyl)amino]-6-(3-oxa-8-azabicyclo[3.2.1]oct-8-yl)pyrimidin-2-yl}phenyl)-3-[4-(pyrrolidin-1-ylmethyl)phenyl]urea] | 110 | 80 | 1090 | 2.95 | 3580 |
| CC(C)Nc1cc(N2C3CCC2COC3)nc(-c2ccc(NC(=O)Nc3cccnc3)cc2)n1 [1-(4-{4-[(1-methylethyl)amino]-6-(3-oxa-8-azabicyclo[3.2.1]oct-8-yl)pyrimidin-2-yl}phenyl)-3-pyridin-3-ylurea] | 45 | 100 | 4350 | 1.1 | ≥ 10000 |
| O=C(Nc1ccncc1)Nc1ccc(-c2nc(N3C4CCC3COC4)cc(N3C[C@H]4C[C@@H]3CO4)n2)cc1 [1-(4-{4-[(1R,4R)-2-oxa-5-azabicyclo[2.2.1]hept-5-yl]-6-(3-oxa-8-azabicyclo[3.2.1]oct-8-yl)pyrimidin-2-yl}phenyl)-3-pyridin-4-ylurea] | 90 | 110 | 1890 | 2.25 | 7430 |
| O=C(Nc1ccncc1)Nc1ccc(-c2nc(N3C4CCC3COC4)cc(N3C[C@@H]4C[C@H]3CO4)n2)cc1 [1-(4-{4-[(1S,4S)-2-oxa-5-azabicyclo[2.2.1]hept-5-yl]-6-(3-oxa-8-azabicyclo[3.2.1]oct-8-yl)pyrimidin-2-yl}phenyl)-3-pyridin-4-ylurea] | 30 | 75 | 2810 | 3.05 | ≥ 10000 |
| CC(C)N1CCN(C(=O)c2ccc(NC(=O)Nc3ccc(-c4nc(N5C[C@@H](C)O[C@@H](C)C5)cc(N5C6CCC5COC6)n4)cc3)cc2)CC1 [1-(4-{4-[(2R,6S)-2,6-dimethylmorpholin-4-yl]-6-(3-oxa-8-azabicyclo[3.2.1]oct-8-yl)pyrimidin-2-yl}phenyl)-3-(4-{[4-(1-methylethyl)piperazin-1-yl]carbonyl}phenyl)urea] | ≤ 0.8 | 0.8 | 293 | 2.7 | 915 |
| C[C@@H]1CN(c2cc(N3C4CCC3COC4)nc(-c3ccc(NC(=O)Nc4ccc(N5CCN(C)CC5)cc4)cc3)n2)C[C@H](C)O1 [1-(4-{4-[(2R,6S)-2,6-dimethylmorpholin-4-yl]-6-(3-oxa-8-azabicyclo[3.2.1]oct-8-yl)pyrimidin-2-yl}phenyl)-3-[4-(4-methylpiperazin-1-yl)phenyl]urea] | 30 | 130 | 1550 | 4.4 | 6440 |
| C[C@@H]1CN(c2cc(N3C4CCC3COC4)nc(-c3ccc(NC(=O)Nc4ccc(N5CCN(C)CC5)nc4)cc3)n2)C[C@H](C)O1 [1-(4-{4-[(2R,6S)-2,6-dimethylmorpholin-4-yl]-6-(3-oxa-8-azabicyclo[3.2.1]oct-8-yl)pyrimidin-2-yl}phenyl)-3-[6-(4-methylpiperazin-1-yl)pyridin-3-yl]urea] | 100 | 200 | 1690 | 15.2 | 15300 |
| C[C@@H]1CN(c2cc(N3C4CCC3COC4)nc(-c3ccc(NC(=O)Nc4ccncc4)cc3)n2)C[C@H](C)O1 [1-(4-{4-[(2R,6S)-2,6-dimethylmorpholin-4-yl]-6-(3-oxa-8-azabicyclo[3.2.1]oct-8-yl)pyrimidin-2-yl}phenyl)-3-pyridin-4-ylurea] | 50 | 280 | 1340 | 2.6 | 5370 |
| C[C@@H]1CN(c2cc(N3C4CCC3COC4)nc(-c3ccc(NC(=O)Nc4ccc(C(=O)N5CCN(C)CC5)cc4)cc3)n2)C[C@H](C)O1 [1-(4-{4-[(2R,6S)-2,6-dimethylmorpholin-4-yl]-6-(3-oxa-8-azabicyclo[3.2.1]oct-8-yl)pyrimidin-2-yl}phenyl)-3-{4-[(4-methylpiperazin-1-yl)carbonyl]phenyl}urea] | ≤ 0.8 | 0.8 | 180 | 3.55 | 1030 |
| C[C@@H]1COCCN1c1cc(N2C3CCC2COC3)nc(-c2ccc(NC(=O)Nc3ccc(N4CCN(C)CC4)cc3)cc2)n1 [1-(4-{4-[(3R)-3-methylmorpholin-4-yl]-6-(3-oxa-8-azabicyclo[3.2.1]oct-8-yl)pyrimidin-2-yl}phenyl)-3-[4-(4-methylpiperazin-1-yl)phenyl]urea] | ≤ 0.8 | 1 | 864 | 1.25 | 3500 |
| C[C@@H]1COCCN1c1cc(N2C3CCC2COC3)nc(-c2ccc(NC(=O)Nc3ccc(N4CCN(C)CC4)nc3)cc2)n1 [1-(4-{4-[(3R)-3-methylmorpholin-4-yl]-6-(3-oxa-8-azabicyclo[3.2.1]oct-8-yl)pyrimidin-2-yl}phenyl)-3-[6-(4-methylpiperazin-1-yl)pyridin-3-yl]urea] | 3.5 | 8 | 1100 | 2.5 | 2980 |
| CCN(CC)c1cc(N2C3CCC2COC3)nc(-c2ccc(NC(=O)Nc3ccncc3)cc2)n1 [1-{4-[4-(diethylamino)-6-(3-oxa-8-azabicyclo[3.2.1]oct-8-yl)pyrimidin-2-yl]phenyl}-3-pyridin-4-ylurea] |  |  | 2410 | 4.55 | 1990 |
| CNC(=O)Nc1ccc(-c2cc(N3CC4CCC(C3)O4)nc(-c3ccc(NC(=O)NC)cc3)n2)cc1 [N′,N′″-{[6-(8-oxa-3-azabicyclo[3.2.1]oct-3-yl)pyrimidine-2,4-diyl]di-4,1-phenylene}bis(1-methylurea)] | 1200 | 1100 | 990 | 2.8 |  |
| CN1CCN(c2ccc(NC(=O)Nc3ccc(-c4cc(N5CC6CCC(C5)O6)nc(-c5ccc(NC(=O)Nc6ccc(N7CCN(C)CC7)cc6)cc5)n4)cc3)cc2)CC1 [N′,N′″-{[6-(8-oxa-3-azabicyclo[3.2.1]oct-3-yl)pyrimidine-2,4-diyl]di-4,1-phenylene}bis{1-[4-(4-methylpiperazin-1-yl)phenyl]urea}] | 300 | 760 | 1020 | 2.15 |  |
| O=C(Nc1ccc(-c2cc(N3CC4CCC(C3)O4)nc(-c3ccc(NC(=O)OCCO)cc3)n2)cc1)OCCO [bis(2-hydroxyethyl) {[6-(8-oxa-3-azabicyclo[3.2.1]oct-3-yl)pyrimidine-2,4-diyl]di-4,1-phenylene}biscarbamate] | 240 | 1600 | 5000 | 9.4 |  |
| CN(Cc1ccc(NC(=O)Nc2ccc(-c3nc(CS(C)(=O)=O)cc(N4CC5CCC(C4)O5)n3)cc2)cc1)C(=O)OC(C)(C)C [tert-butyl methyl(4-{[(4-{4-[(methylsulfonyl)methyl]-6-(8-oxa-3-azabicyclo[3.2.1]oct-3-yl)pyrimidin-2-yl}phenyl)carbamoyl]amino}benzyl)carbamate] | 210 | 470 | 1930 | 30 |  |

Source: patent publication US8835429B2, “Pyrimidine compounds, their use as mTOR kinase and Pl3 kinase inhibitors, and their syntheses” (Wyeth LLC, priority 2009, dated 2014)
